# Reference: article PMC3902015 (Journal of Alzheimer's disease : JAD, 2012)
# “Also recorded” adds a separate entry of the source.
# How the values were obtained:
# LRP1 [1] = assay: RT-PCR of LRP1 mRNA in bEnd3 cells; type: cell-based, mouse; details: 50 µM, 72 h, vs control
# P-gp [2] = assay: Immunofluorescence staining of P-gp in isolated brain microvessels; set-up: species or system C57BL/6 wild-type mice; details: mouse, in vivo
# LRP1 [3] = assay: Immunofluorescence staining of LRP1 in isolated brain microvessels; set-up: species or system C57BL/6 wild-type mice; details: mouse, in vivo
# RAGE = assay: Western blot of RAGE in isolated brain microvessels; type: in vivo, C57BL/6 wild-type mice; details: treated mice vs control
# MRP1 = assay: Western blot of MRP1 in brain homogenate; type: in vivo, C57BL/6 wild-type mice; details: treated mice vs control
# [4] = Drug concentration in plasma and brain homogenate; type: in vivo, C57BL/6 wild-type male mice; details: for concentration at 3 h: brain homogenate
# [5] = Body weight during in vivo treatment; set-up: species or system C57BL/6 wild-type male mice; details: caffeine 40 mg/kg ip once daily, treatment limited to 2 weeks
# [6] = cited from earlier work
# LRP1 [7] = assay: Western blot of LRP1 protein in bEnd3 cells after drug treatment; details: 50 µM, 72 h, vs control (DMSO)
# P-gp [8] = details: bEnd3 cells, 50 µM, 72 h, vs control (DMSO)
# MDR1 = details: bEnd3 cells, 50 µM, 72 h, vs control
# [9] = after administration of 6.4 mg/kg dose; cited from earlier work
# cognitive decline = details: mild to moderate AD patients, 3-month course of 300 mg/day; cited from earlier work
# P-gp [10] = target: P-gp (Mus musculus, UniProt P21447); assay: BEI% of 125I-Aβ40 with P-gp inhibition by intracerebral valspodar; type: in vivo, C57BL/6 mice; details: for BEI% of 125I-Aβ40 after valspodar pretreatment: valspodar 24 ng/0.5 µl
# LRP1 [11] = target: LRP1 (Mus musculus, UniProt Q91ZX7); assay: BEI% of 125I-Aβ40 with LRP1 inhibition by intracerebral RAP; type: in vivo, C57BL/6 mice; details: for BEI% of 125I-Aβ40 after RAP pretreatment: RAP 19.5 ng/0.5 µl
# P-gp (Mus musculus, UniProt P21447), sequence (P21447 whole entry): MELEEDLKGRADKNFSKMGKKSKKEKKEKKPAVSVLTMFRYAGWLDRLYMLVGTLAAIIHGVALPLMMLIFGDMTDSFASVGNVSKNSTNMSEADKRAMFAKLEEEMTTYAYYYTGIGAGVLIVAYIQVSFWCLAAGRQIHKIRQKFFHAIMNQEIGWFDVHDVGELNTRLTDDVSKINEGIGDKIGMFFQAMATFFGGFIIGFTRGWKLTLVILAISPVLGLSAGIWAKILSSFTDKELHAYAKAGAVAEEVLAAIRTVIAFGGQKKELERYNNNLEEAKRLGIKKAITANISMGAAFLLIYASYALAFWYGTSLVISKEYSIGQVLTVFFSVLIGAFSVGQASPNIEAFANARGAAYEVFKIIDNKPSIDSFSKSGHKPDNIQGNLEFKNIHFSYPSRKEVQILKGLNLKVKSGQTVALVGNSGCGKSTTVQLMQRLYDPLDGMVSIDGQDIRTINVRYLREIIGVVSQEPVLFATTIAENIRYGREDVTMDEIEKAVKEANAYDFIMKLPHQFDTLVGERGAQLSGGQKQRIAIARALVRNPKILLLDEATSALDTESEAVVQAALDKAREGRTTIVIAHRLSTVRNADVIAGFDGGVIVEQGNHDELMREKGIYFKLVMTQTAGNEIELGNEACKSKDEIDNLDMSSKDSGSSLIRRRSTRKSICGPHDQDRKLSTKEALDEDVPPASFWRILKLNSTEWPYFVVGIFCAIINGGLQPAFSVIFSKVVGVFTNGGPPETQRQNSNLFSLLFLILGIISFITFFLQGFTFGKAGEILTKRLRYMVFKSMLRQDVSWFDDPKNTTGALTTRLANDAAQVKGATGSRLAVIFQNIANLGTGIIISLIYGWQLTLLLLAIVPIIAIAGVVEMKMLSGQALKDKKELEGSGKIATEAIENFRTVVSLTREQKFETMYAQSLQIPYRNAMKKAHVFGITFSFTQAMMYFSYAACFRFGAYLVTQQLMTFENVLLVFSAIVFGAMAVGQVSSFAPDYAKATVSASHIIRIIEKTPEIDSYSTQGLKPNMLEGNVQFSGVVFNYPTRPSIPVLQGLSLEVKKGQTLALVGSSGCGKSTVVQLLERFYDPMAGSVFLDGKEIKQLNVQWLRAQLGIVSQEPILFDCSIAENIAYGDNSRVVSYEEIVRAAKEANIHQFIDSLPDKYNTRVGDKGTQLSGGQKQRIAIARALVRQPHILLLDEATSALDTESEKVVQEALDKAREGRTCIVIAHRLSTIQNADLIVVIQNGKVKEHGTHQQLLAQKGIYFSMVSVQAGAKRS
compound,measurement,setting,value
Cn1c(=O)c2c(ncn2C)n(C)c1=O [Caffeine],increase in mRNA level of LRP1 (RT-PCR),LRP1 [1],did not show any effect
same,increase in P-gp expression in brain microvessels (immunofluorescence),P-gp [2],2.3 fold
same,increase in LRP1 expression in brain microvessels (immunofluorescence),LRP1 [3],1.2 fold
same,effect on microvessels' RAGE expression (western blot),RAGE,did not alter; also recorded: Insignificant differences
same,effect on brain homogenate's MRP1 expression (western blot),MRP1,did not alter; also recorded: Insignificant differences
same,Drug concentration Plasma,"[4]; 3 h after last ip dose (rifampicin 20 mg/kg, caffeine 40 mg/kg daily), n = 12",20000 ± 5400 ng/mL
same,Kp at 3 h,"[4]; male, C57BL/6, mouse, brain homogenate / plasma, ip",0.5
same,concentration at 3 h,"[4]; male, C57BL/6, mouse, ip",11800 ± 3600 ng/mL
same,body weight observation during treatment,[5],weight loss
same,plasma protein binding,[6],10–37%
same,increase in LRP1 level (densitometric analysis of western blot),LRP1 [7],but not caffeine
CO[C@H]1/C=C/O[C@@]2(C)Oc3c(C)c(O)c4c(O)c(c(/C=N/N5CCN(C)CC5)c(O)c4c3C2=O)NC(=O)/C(C)=C\C=C\[C@H](C)[C@H](O)[C@@H](C)[C@@H](O)[C@@H](C)[C@H](OC(C)=O)[C@@H]1C [Rifampicin],increase in mRNA level of LRP1 (RT-PCR),LRP1 [1],1.4 fold
same,concentration at 3 h,"[4]; male, C57BL/6, mouse, ip",150 ± 80 ng/mL
same,increase in P-gp level (densitometric analysis of western blot),P-gp [8],1.45 fold
same,increase in mRNA of MDR1 (RT-PCR),MDR1,1.5 fold
same,free (unbound) plasma level in humans,[9],1.08 µg/mL
same,effect on rate of cognitive decline,cognitive decline,attenuated the rate of cognitive decline
same,increase in LRP1 level (densitometric analysis of western blot),LRP1 [7],1.2 fold
C/C=C/C[C@@H](C)C(=O)[C@H]1C(=O)N[C@@H](C(C)C)C(=O)N(C)CC(=O)N(C)[C@@H](CC(C)C)C(=O)N[C@@H](C(C)C)C(=O)N(C)[C@@H](CC(C)C)C(=O)N[C@@H](C)C(=O)N[C@H](C)C(=O)N(C)[C@@H](CC(C)C)C(=O)N(C)[C@@H](CC(C)C)C(=O)N(C)[C@@H](C(C)C)C(=O)N1C [Valspodar],reduction in BEI% values by valspodar,P-gp [10]; caffeine-treated mice,~32%
same,BEI% of 125I-Aβ40 after valspodar pretreatment,"P-gp [10]; caffeine-treated mice, without valspodar 80.4±[…]",48.1 ±2.3%
same,reduction in BEI% values by valspodar,P-gp [10]; rifampicin-treated mice,~25%
same,BEI% of 125I-Aβ40 after valspodar pretreatment,"P-gp [10]; rifampicin-treated mice, without valspodar 82.4±[…]",57.5± 1.1%
"RAP: human receptor associated protein, a specific LRP1 inhibitor",BEI% of 125I-Aβ40 after RAP pretreatment,"LRP1 [11]; caffeine-treated mice, without RAP 80.4 ±[…]",76.9 ±2.5%
same,reduction in BEI% values by RAP,LRP1 [11]; control mice,about 33%
same,reduction in BEI% values by RAP,LRP1 [11]; rifampicin-treated mice,~13%
same,BEI% of 125I-Aβ40 after RAP pretreatment,"LRP1 [11]; rifampicin-treated mice, without RAP 82.4±[…]",69.7 ±3.3%
